One series addresses rat MCH1R (Rattus norvegicus, UniProt P97639). As to the kind of experiment: [125I] MCH binding to membrane fractions of MCH1R expressing HEK-293T. Here is the method:
Cell pellet was homogenized with ice-cold 50 mM Tris-HCl buffer (pH 7.4) containing 5 mM EDTA, and ultra-centrifuged twice at 48,000×g for 20 min at 4° C. The pellets were then suspended in 50 mM Tris-HCl (pH 7.4) buffer containing 5 mM EDTA and used as membrane fractions. […] The radioactivity retained in the filters was determined with a γ-counter. IC50 values calculated as described above are expressed as the mean +S.E.M. for three independent determinations. DNA was mixed with LipofectAMINE transfection reagents (Life Technologies, MD), and the mixture was diluted with Opti-MEM and added to 60-70% confluent HEK 293T cells plated on 100-mm dishes. The transfected cells were cultured in DMEM containing 10% FBS.

Another series has as its target human MCH2R (Homo sapiens, UniProt Q969V1). Kind of series: Selectivity versus human MCH2R. It is filed as cell-based.
The next series relates to rats. As to the kind of experiment: Motor activity in rats, Example VI. The format is in vivo, rat. Conditions: 10 nM i.c.v. On the procedure:
Sprague Dawley rats were randomly divided into two groups (Group I and Group II) of eight (8) rats each. The rats in Group I (n=8) received 0.9% saline by i.c.v. injection. The rats in Group II (n−8) received 10 nM TPI 1361-17 (Formula IV) by i.c.v. injection. […] Once each day thereafter, for a total of ______ days, the rats were taken into a test room, allowed to acclimatize for ______ minutes, then placed in four identical chambers (43 cm×43 cm×30.5 cm) that were connected to a common interface and computer (MED Associates, Inc., St. Albans, Vt.). Horizontal movement of the rats was monitored by 16 photobeams per side evenly spaced along each wall of two adjacent sides of each test chamber.

“Also recorded” adds a separate entry of the source.

Chain of human MCH2R (Q969V1 whole entry): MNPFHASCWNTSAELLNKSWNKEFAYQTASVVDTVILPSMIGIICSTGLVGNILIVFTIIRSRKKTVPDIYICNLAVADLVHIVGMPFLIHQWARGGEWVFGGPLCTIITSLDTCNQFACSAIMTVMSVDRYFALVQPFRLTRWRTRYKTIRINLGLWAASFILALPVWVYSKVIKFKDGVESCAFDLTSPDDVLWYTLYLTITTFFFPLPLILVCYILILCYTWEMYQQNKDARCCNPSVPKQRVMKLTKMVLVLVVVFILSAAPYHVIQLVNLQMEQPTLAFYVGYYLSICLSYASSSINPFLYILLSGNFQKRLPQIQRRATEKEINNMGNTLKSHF
Chain of rat MCH1R (P97639 whole entry): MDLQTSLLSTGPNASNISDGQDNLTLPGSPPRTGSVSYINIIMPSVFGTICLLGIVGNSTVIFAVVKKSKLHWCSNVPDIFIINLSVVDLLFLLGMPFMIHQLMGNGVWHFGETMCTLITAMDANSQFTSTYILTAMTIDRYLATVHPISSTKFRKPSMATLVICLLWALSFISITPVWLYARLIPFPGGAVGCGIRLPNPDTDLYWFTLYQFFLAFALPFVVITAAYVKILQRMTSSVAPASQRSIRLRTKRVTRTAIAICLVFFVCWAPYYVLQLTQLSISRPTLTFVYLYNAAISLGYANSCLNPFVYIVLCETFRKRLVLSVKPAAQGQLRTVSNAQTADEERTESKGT

By IC50 is commonly meant the concentration that gives 50% inhibition. In the case of `C[C@@H](CNCc1ccccc1)N1C[C@H](CCCNC(=N)N)N(CCc2cccc(F)c2)C1=S` [TPI 1361-17, N-(3-{(4S)-1-[(1S)-2-(benzylamino)-1-methylethyl]-3-[2-(3-fluorophenyl)ethyl]-2-thioxoimidazolidin-4-yl}propyl)guanidine], at rat MCH1R, the “Displacement of [125I] MCH binding to rat MCH1R” value was “completely displaced”. Besides, at rat MCH1R (mean ±S.E.M., 0.1 nM radioligand, read-out: IC50 for displacement of [125I] MCH binding), the 50% inhibitory concentration (IC50) turned out to be 140 ± 34.6 nM. Besides, on human MCH2R, the “Affinity to / antagonism of human MCH2R” value was “no affinity; also recorded: not appreciably antagonize” and the “Selectivity for MCH1R compared with human MCH2R” value is “more than 1,000 fold”. Also, the “Motor activity versus control (distance traveled, time resting, time ambulatory, ambulatory counts, time stereotypic, stereotypic counts)” value in the series with rats is on record as “no significant differences”.

The record behind these values is patent US8372848B2, “Melanin-concentrating hormone receptor antagonists and methods of use” (Mixture Sciences, Inc., priority 2004, dated 2013).
